Consider 17 compounds from patent publication US20240317762A1, “PHTHALAZINONE-BASED PARP-1 INHIBITORS” (Oregon Health & Science University, priority 2021, published 2024).

For data set [1], the system named is pan-nuclear γH2AX in HEK 293T cells. Description: γH2AX immunofluorescence. Type of data set: cell-based, human. The conditions noted are these: for reduction of AZ0108-induced pan-nuclear γH2AX / increase of AZ0108-induced pan-nuclear γH2AX: kinase inhibitor co-treated with AZ0108. Here is the method: HEK 293T or HEK 293 PARP-1 KO cells were seeded onto poly-d-lysine treated glass coverslips and treated with indicated concentrations of inhibitors for 18 hours. Cells were then washed with 1×PBS and fixed using 4% Sucrose/4% Paraformaldehyde in PBS for 20 minutes. After three washes in 1×PBS, cells were permeabilized in 0.3% Triton X-100 in PBS for 5 minutes followed by an additional three washes in 1×PBS. Coverslips were blocked in 3% BSA/0.1% Triton X-100 in PBS for 1 hour and then placed in primary anti-rabbit phosphoH2Ax antibody (1:200, Cell Signaling) overnight at 4° C. The next morning, cells were washed three times in 1×PBS and treated with blocking solution, 3% BSA/0.1% Triton X-100 in PBS, for 30 minutes before being placed in secondary anti-rabbit Alexa Fluor 647 (1:1000 Jackson Immuno) for 1 hour at RT. After three subsequent 1×PBS washes, coverslips were mounted using ProLong Gold antifade reagent with DAPI (Invitrogen). All immunofluorescence images were taken on a Zeiss ApoTome2 on Axiolmager and analyzed using Zeiss software. Mean intensity of the Alexa Fluor 647 signal was measured after imposing DAPI masks over the nucleus of each cell. All cells within a 20× image, was analyzed (˜3000 cells/condition).
Cell are stained for DAPI and γH2AX. Scale bar indicates 50 μm. FIG. 2B) Quantification of panel a. […] Error bars represent SEM. […] Error bars represent SEM. […] Error bars represent SEM.

Data set [2] relates to Ewing sarcoma cell line EW-8. Description: ES-8 viability screen (CellTiter-Glo). Type of data set: cell-based. The conditions noted are these: for Fold Difference to Pip6: ratio of EC50 values; for EC50: viability, 72 h. The method, then:
Cell viability was measured using the CellTiter-Glo (Promega, G7573) assay and read using an Envision (PerkinElmer) plate reader. Compound source plates (96-well) were prepared by solubilizing each drug in DMSO to a maximum concentration of 1-50 mM, then arraying samples in 10-point dose-response with 3-fold dilution. Positive and negative controls (staurosporine at 10 mM and DMSO, respectively) were added to the source plates. Drug was transferred from the source plate to the assay plate using a Biomek FX (Beckman Coulter) liquid handler equipped with a pin tool which transferred ˜100 nl into a final volume of 100 μl, resulting in ˜1000-fold dilution. At least two biological replicates (assay performed on different day with same drug plate and independent cell preparation) were obtained for each drug. To analyze the assay, the relative light unit signal in each well was first log 2 transformed, then normalized by subtracting the mean of the negative controls wells on each plate.
FIGS. 6A-6E. […] 0.1 μM ad-olaparib (chemical structure indicated in panel a) was added to the cells for 1 hour before undergoing a UV treatment for 5 minutes in cold PBS. Cells were lysed and sonicated in PBS (1% Triton X-100+1% SDS), clicked with TAMRA-azide and run out on SDS-PAGE. The gel was imaged for TAMRA and probed for PARP-1 (Bethyl Laboratories), and alpha-tubulin (X). FIGS. 6B, 6D) Quantification of western blot images. TAMRA or ADPr values are normalized to PARP-1 within each replicate and plotted as percentage compared to DMSO. Error bars indicate SEM (n=3-4). Statistical significance of off-rate calculated via multiple t-tests (p<0.05). […] Cells were subsequently treated with PARGi (10 μM) for 30 minutes, lysed using RIPA buffer, run out on SDS-PAGE, and probed for ADPr (Cell Signaling) and PARP-1 (Bethyl Laboratories). FIG. 6E) ES-8 cells were treated with indicated concentration of inhibitors for 72 hours before measuring cell viability using the CellTiter-Glo kit (Promega G7573). IC50 values were calculated using R statistical software.
On the technique in general: Cellular ATP, detected with luciferase, serves as a proxy for viable cell number.

Data set [3] relates to HEK 293T cells. Description: cell proliferation (MTT) assay. The conditions noted are these: MTT, 72 h; for EC50: Homo sapiens, HEK-293T, read-out: EC50 cell growth. Type of data set: cell-based, human. The method, then:
HEK 293T or HEK 293 PARP-1 KO cells were seeded in a 96 well plate at 1000-2000 cells per well. Following an overnight incubation, MTT reagent, 3-(4,5-dimethylthiazol-2-yl)-2,5-diphenyltetrazolium bromide, or a dosage curve of indicated inhibitor was added to each well in quadruplicate. Following a 3-hour incubation at 37° C., wells containing MTT reagent, were aspirated and lysed with 100 μl DMSO. These wells acting as a no growth control were collected, saved @ −20° C., and replaced with 100 μl water. The plate was placed back into the incubator for a total of 72 hours of inhibitor treatment prior to MTT reagent being added for a final time. Following a 3 hour incubation with the reagent, wells were aspirated, and 100 μl DMSO were added to each well, while the no growth control sample was added back to the plate. Absorbance was read on a SpectraMaxi3 plate reader (Molecular Devices). Percent growth was calculated for analysis. Statistical significance was assigned using individual t-tests between conditions for each inhibitor dosage.
(§1) Error bars represent SEM. […] Error bars represent SEM. […] Error bars represent SEM.

In data set [4] the test system is caspase-3/7 activity in HEK 293 cells. Description: cell apoptosis assay (Caspase-Glo 3/7). The format is cell-based, human. The conditions noted are these: 1 μM, 72 hours. The method, then:
HEK 293 or HEK 293 PARP-1 KO cells were seeded in a 96 well plate at 1000-2000 cells per well, a media only “blank” was also included. Following an overnight incubation, cells were treated with 1 μM of indicated inhibitors. “Blank” wells were treated with DMSO. Following a 72 hour inhibitor treatment, the Caspase-Glo 3/7 Assay was completed following the manufacturer instructions (Promega, #G8091). Luminescence was read on a SpectraMax i3 plate reader (Molecular Devices).
as §1

Data set [5] has as its system HEK 293T cells. The data set can be described thus: analysis of cell cycle (DAPI, flow cytometry). The conditions noted are these: for G1 / G2 / S: DAPI intensity, 18 hours. For orientation: A flow cytometer gives signals particle by particle.
Method: After the indicated treatments, cells were washed twice with 1× PBS, trypsinized off of the plate, and washed an additional 2 times with 1×PBS. Cells were then permeabilized using 70% cold ethanol while vortexing before incubating for 30 min at 4° C. Cells were then washed three times with 1×PBS and counted using a hemocytometer to create a final pellet of 1×10^6 cells in for each inhibitor condition. 500 μl of DAPI solution (1 μg/ml DAPI, 0.1% Triton X-100 in PBS) was added to each cell pellet and incubated on ice for 30 min before being analyzed by flow cytometry using a BD Canto II. All data was analyzed on FlowJo software, gating for 20,000 singlet events. Manual cell cycle gates were set onto the DMSO control data using Watson modeling as reference. These gates were applied to all treatment conditions to obtain quantitative analysis.
Error bars represent SEM. […] Caspase-Glo 3/7 reagent was added to each well and luminescence was read after 30 minutes. […] Error bars represent SEM. […] Cell cycle was analyzed by flow cytometry (20,000 singlet events) and cell cycle statistics were calculated in FlowJo software against DMSO Watson modeling (n=3). FIG. 3F) DNA synthesis was measured using EdU incorporation. […] EdU incorporation was labelled using TAMRA azide click-chemistry and imaged at 20×. Mean intensity of TAMRA signal within DAPI masks analyzed using Zen software (n>3900 cells over 2 replicates). Values are normalized to the average DMSO control within each replicate. Error bars represent SEM. Statistical significance calculated via one-way ANOVA with Tukey's multiple comparisons test (p<0.05).
Data set [6] addresses T1, PARP-1 (Homo sapiens, UniProt P09874). Description: in vitro fluorescence polarization DNA competition assay. The conditions noted are these: 25 μM compound; PARP-1 40 nM; nicked dumbbell DNA probe 20 nM.
Method: The full-length WT PARP-1 protein used in these assays was purified as described previously (30).
An unlabeled competitor was added and the decrease in fluorescence polarization was measured across time.
The target in data set [7] is T1, PARP-1. Description: in vitro PARP-1 auto-PARylation assay (SRPK2 plate assay). The format is biochemical. More on the design: The full-length WT PARP-1 protein used in these assays; made in house. The conditions noted are these: read-out: IC50 against PARP-1 catalytic activity (auto-PARylation). The method, then:
IC50 SRPK2 Plate Assays were performed as previously described (21). Log(inhibitor) versus response curves were fit using non-linear regression with variable slope. Mean IC50 values for each compound were derived from a minimum of three separate replicates.

The subject of data set [8] is Ser345 phosphorylation of Chk1 in HEK 293 cells. Description: western blot analysis of phosphorylation of Chk1. The conditions noted are these: co-treatment with AZ0108.
For data set [9], the system named is PARP-1 (full-length WT) (Homo sapiens). The data set can be described thus: FP. The conditions noted are these: 5 uM AZ0108 increased affinity 4-fold over no inhibitor; olaparib only modest effect.

T1 sequence (P09874 whole entry): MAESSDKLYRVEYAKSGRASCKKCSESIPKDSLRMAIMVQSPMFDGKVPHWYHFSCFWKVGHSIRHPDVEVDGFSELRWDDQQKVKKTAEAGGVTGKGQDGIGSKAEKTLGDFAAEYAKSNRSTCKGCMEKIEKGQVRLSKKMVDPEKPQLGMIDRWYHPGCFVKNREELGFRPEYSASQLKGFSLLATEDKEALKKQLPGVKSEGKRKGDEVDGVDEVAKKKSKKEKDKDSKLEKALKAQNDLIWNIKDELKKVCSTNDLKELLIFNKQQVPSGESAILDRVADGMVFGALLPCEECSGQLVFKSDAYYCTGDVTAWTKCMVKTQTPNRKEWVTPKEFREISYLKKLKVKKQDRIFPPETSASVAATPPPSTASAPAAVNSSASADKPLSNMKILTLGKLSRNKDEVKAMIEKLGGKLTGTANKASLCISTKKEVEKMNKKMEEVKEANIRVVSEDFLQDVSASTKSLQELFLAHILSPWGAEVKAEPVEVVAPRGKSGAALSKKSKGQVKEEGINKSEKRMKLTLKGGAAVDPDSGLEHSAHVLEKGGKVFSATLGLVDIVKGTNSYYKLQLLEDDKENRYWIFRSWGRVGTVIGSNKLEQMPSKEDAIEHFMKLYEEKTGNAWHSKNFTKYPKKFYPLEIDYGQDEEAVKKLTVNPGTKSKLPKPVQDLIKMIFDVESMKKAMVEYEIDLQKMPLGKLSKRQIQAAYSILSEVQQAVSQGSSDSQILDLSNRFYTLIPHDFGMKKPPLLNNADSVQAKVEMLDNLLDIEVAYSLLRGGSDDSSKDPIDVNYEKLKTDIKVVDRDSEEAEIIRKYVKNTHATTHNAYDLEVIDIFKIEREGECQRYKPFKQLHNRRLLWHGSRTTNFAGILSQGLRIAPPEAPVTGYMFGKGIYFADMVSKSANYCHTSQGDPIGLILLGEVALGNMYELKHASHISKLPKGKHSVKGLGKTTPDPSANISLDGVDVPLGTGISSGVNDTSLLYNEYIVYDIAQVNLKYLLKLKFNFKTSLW

Turning to `O=c1cc(-c2cccc3c2Sc2ccccc2S3)oc(N2CCOCC2)c1` [KU-55933], the “reduction of AZ0108-induced pan-nuclear γH2AX” value in data set [1] is recorded as approximately 2 fold.

Take `O=c1cc(N2CCOCC2)oc2c(-c3cccc4c3sc3ccccc34)cccc12` [NU7441]: the “increase of AZ0108-induced pan-nuclear γH2AX” value in data set [1] was approximately 1.3 fold.

A word on the EC50: it is the concentration giving half of the maximal effect. As to `NC(=O)c1cccc2cn(-c3ccc([C@@H]4CCCNC4)cc3)nc12` [Niraparib], in [2], the “Fold Difference to Pip6” value is 5693 and the EC50 came to 1380 nM.

On to `O=C(c1cc(Cc2n[nH]c(=O)c3ccccc23)ccc1F)N1CCN(C(=O)C2CC2)CC1` [Olaparib], for which, in data set [1] (HEK 293T cells, 18 hours), the “pan-nuclear γH2AX induction” value was “did not induce either pan-nuclear γH2AX or γH2AX foci”. The “effect of co-treatment on AZ0108-induced pan-nuclear γH2AX” value in data set [1] (co-treatment with AZ0108) is “reversed the effects of AZ0108 on pan-nuclear γH2AX”. Besides, the concentration giving a half-maximal response (EC50) in the data set with HEK 293T cells [3] is approximately 10000 nM. Also, the “reduction of caspase-3/7 activity” value in [4] is recorded as “did not significantly affect”. In the data set with HEK 293T cells [5], this compound came in with a G1 of 19.4%, a G2 of 9.50% and an S of 54.0%. Further, the “effect on cell cycle” value with HEK 293T cells [5] (FACS, DAPI fluorescence) is recorded as “did not alter the cell cycle”.

As usually defined, the IC50 is the point on the concentration scale where inhibition reaches its midpoint. For `O=C(c1cc(Cc2n[nH]c(=O)c3ccccc23)ccc1F)N1CCn2cnnc2C1` [Pip1, 4-(4-Fluoro-3-(5,6,7,8-tetrahydro-[1,2,4]triazolo[4,3-a]pyrazine-7-carbonyl)benzyl)phthalazin-1(2H)-one], the EC50 with HEK 293T cells [3] was approximately 6000 nM. Also, on PARP-1 [6], the “exchange of the PARP-1:labled DNA complex with an unlabeled DNA competitor” value is “very little impact”. On PARP-1 [7], the IC50 worked out at 3.9 nM.

With `Cc1nnc2n1CCN(C(=O)c1cc(Cc3n[nH]c(=O)c4ccccc34)ccc1F)C2` [Pip2, 4-(4-Fluoro-3-(3-methyl-5,6,7,8-tetrahydro-[1,2,4]triazolo[4,3-a]pyrazine-7-carbonyl)benzyl) phthalazin-1(2H)-one], the “exchange of the PARP-1:labled DNA complex with an unlabeled DNA competitor” value at PARP-1 [6] is “very little impact”.

Take `O=C(c1cc(Cc2n[nH]c(=O)c3ccccc23)ccc1F)N1CCn2c(nnc2C(F)(F)F)C1` [Pip3, 4-(4-Fluoro-3-(3-(trifluoromethyl)-5,6,7,8-tetrahydro-[1,2,4]triazolo[4,3-a]pyrazine-7-carbonyl)benzyl) phthalazin-1(2H)-one]: the “potency in inhibiting cell growth compared with AZ0108” value in the data set on HEK 293T cells [3] is listed as “substantially more potent than AZ0108”.

With `CC(C)c1nnc2n1CCN(C(=O)c1cc(Cc3n[nH]c(=O)c4ccccc34)ccc1F)C2` [Pip4, 4-(4-Fluoro-3-(3-isopropyl-5,6,7,8-tetrahydro-[1,2,4]triazolo[4,3-a]pyrazine-7-carbonyl)benzyl) phthalazin-1(2H)-one], on PARP-1 [7], the IC50 came out at 17.5 nM.

Turning to `CC(F)(F)c1nnc2n1CCN(C(=O)c1cc(Cc3n[nH]c(=O)c4ccccc34)ccc1F)C2` [Pip5, 4-(4-Fluoro-3-(3-(1,1-difluoroethyl)-5,6,7,8-tetrahydro-[1,2,4]triazolo[4,3-a]pyrazine-7-carbonyl)benzyl)phthalazin-1(2H)-one], the “potency in inhibiting cell growth compared with AZ0108” value in the data set on HEK 293T cells [3] is reported as “substantially more potent than AZ0108”.

As for `CNCc1ccc(-c2[nH]c3cc(F)cc4c3c2CCNC4=O)cc1` [Rucaparib], in data set [2], the “Fold Difference to Pip6” value came out at 22998 and a half-maximal response (EC50) required 5570 nM.

In the case of `CCc1c2c(nc3ccc(O)cc13)-c1cc3c(c(=O)n1C2)COC(=O)[C@]3(O)CC` [SN-38], in data set [2], the “Fold Difference to Pip6” value is approximately 3 and a half-maximal effect (EC50) was put at 0.75 nM.

With `Oc1c2ccccc2c2c3c(cccc13)N=N2` [SP600125], in [1], the “reduction of AZ0108-induced pan-nuclear γH2AX” value is approximately 2 fold.

In the case of `Cn1ncnc1[C@H]1c2n[nH]c(=O)c3cc(F)cc(c23)N[C@@H]1c1ccc(F)cc1` [Talazoparib], in [2], the “Fold Difference to Pip6” value is 59 and it took 14.2 nM to reach a half-maximal effect (EC50).

As for `Cc1cn([C@H]2C[C@H](O)[C@@H](CO)O2)c(=O)[nH]c1=O` [Thymidine], in the data set with HEK 293T cells [5], the G1 was found to be 2.79%, the G2 is listed as 7.06% and the S is reported as 76.3%.

On to `CS(=O)(=O)c1ccc(-c2cnc(N)c(C(=O)Nc3ccccc3)n2)cc1` [VE-821], for which the “increase of AZ0108-induced pan-nuclear γH2AX” value in data set [1] is listed as approximately 1.3 fold. Besides, the “effect on AZ0108-induced Ser345 phosphorylation of Chk1” value in data set [8] was “significantly inhibited”.

Consider `C[C@]1(c2nc3c(C(N)=O)cccc3[nH]2)CCCN1` [Veliparib], for which, in [2], the “Fold Difference to Pip6” value was determined as 245827 and the EC50 was determined as 59600 nM.

Consider dumbbell DNA probe with central nick, for which, in data set [9], the binding signal turned out to be 4 fold.
